Reference: US8372866B2, “2-aryl and 2-heteroaryl 4H-1-benzopyran-4-one-6-amidino derivatives, new pharmacological agents for the treatment of arthritis, cancer and related pain” (Rottapharm S.p.A., priority 2008, dated 2013)
Counter-ions that a name gives are not always drawn. Like-named read-outs stand apart in the source and are kept apart here.

How the values were obtained:
[1] = test system: Zymosan-induced mechanical hyperalgesia; assay: Zymosan-induced mechanical hyperalgesia (Randall-Selitto), model of inflammatory pain; format: in vivo, rat; details: for ED50: read-out: ED50 4 hrs
Description: In this model, typically a male Sprague-Dawley or Wistar rat (200-250 g) receives an interplantar injection of 3 mg/100 μl zymosan into one hind paw. A marked inflammation occurs in this hind paw. Drugs are administered orally for evaluation of efficacy, 30 min. before the inflammatory insult. […] The quantisation of the analgesic effect is achieved by an analgesimeter, which consists in applying to the inflamed paw an increasing weight (from 130-140 g up to 500 g). […] For each test compound, at least three doses were used, with 8 animals per group. Compounds of the invention were tested at 10, 20 and 40 mg/Kg.

[2] = target: T1, recombinant human aggrecanase 1 (ADAMTS-4) (Homo sapiens, UniProt O75173); assay: InviLISA Aggrecanase activity assay, aggrecanase 1; format: biochemical; details: inhibitors tested at 10 μM final concentration
T1 construct: ADAMTS-4 aminoacids F213-A579 with C-terminal tag; purchased Invitek GmbH, Berlin
T1 sequence (O75173 213-579): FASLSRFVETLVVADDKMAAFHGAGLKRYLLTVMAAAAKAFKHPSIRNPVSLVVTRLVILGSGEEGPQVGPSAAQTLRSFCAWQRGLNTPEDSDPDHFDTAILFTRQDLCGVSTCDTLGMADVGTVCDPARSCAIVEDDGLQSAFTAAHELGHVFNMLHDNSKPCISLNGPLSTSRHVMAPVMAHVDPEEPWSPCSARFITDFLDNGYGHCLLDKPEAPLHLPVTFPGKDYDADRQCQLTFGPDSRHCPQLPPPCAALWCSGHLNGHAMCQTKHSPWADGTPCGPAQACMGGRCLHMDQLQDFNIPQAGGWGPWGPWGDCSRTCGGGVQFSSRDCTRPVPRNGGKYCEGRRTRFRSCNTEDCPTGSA
Description: (§1) The InviLISA Aggrecanase activity assay (Invitek GmbH, Berlin) was used to screen and characterise aggrecanase inhibitors. The assay was carried out in two steps, according to Will et al. (Will H, Dettloff M, Bendzko P, Svenshnikov P, A Quantitative Assay for aggrecanase Activity; 2005, Journal of Biomolecular Techniques, 16 (4), 459-472). A recombinant fragment of human aggrecan interglobular domain (aggrecan-IGD; T331-G458) is first digested with aggrecanase. Proteolytic cleavage of the substrate releases an aggrecan peptide with the N-terminal sequence ARGSVIL (ARGSVIL-peptide), that was then quantified with two monoclonal anti-peptide antibodies (ELISA module). For precise calculation of product, ARGSVIL-peptide standard concentrations were run in parallel.
(§2) 1) Proteolysis of aggrecan-IGD by aggrecanase. Aggrecan-IGD was incubated with standard recombinant human aggrecanase 1 (ADAMTS-4 aminoacids F213-A579 with C-terminal tag) or standard recombinant human aggrecanase 2 (ADAMTS-5 aminoacids S262-G625 with C-terminal tag) in the absence (total enzymatic activity) or presence (modulated enzymatic activity) of inhibitors to be tested. Enzymes were pre-incubated with the inhibitors or the appropriate concentration of diluent as control (DMSO 0.25% final concentration in proteolysis), at 4° C. for 30 min prior to assaying their activity. Five microliters of mix enzyme-inhibitor were added to the substrate (0.1 μM final concentration) in a total volume of 100 μL and incubated for 15 minutes at 37° C. The reaction was terminated with EDTA-containing buffer. The inhibitors were tested at 10 μM final concentration and compounds achieving ≧50% inhibitory effect were evaluated for IC50 calculation, in a range generally extended from 0.1 to 10 μM final concentration.
(§3) 2) Aggrecan peptide ELISA. ARGSVIL-peptide standard, proteolytic digestion of Aggrecan-IGD with standard aggrecanases and test samples were incubated in microtiter wells pre-coated with anti-ARGSVIL-neoepitope antibody. ARGSVIL-peptide is bound to the coated antibody, while other components are removed by washing and aspiration. The bound ARGSVIL-peptide was detected with a second peroxidase-labelled antibody. Any excess of the conjugate was removed by washing and aspiration. The amount of peroxidase bound to different wells was determined in reactions with peroxidase substrate TMB. The reactions are stopped by addition of sulphuric acid solution and absorbance is read at 450 nm in a microtiter plate spectrophotometer.

[3] = target: T2, recombinant human aggrecanase 2 (ADAMTS-5) (Homo sapiens, UniProt Q9UNA0); assay: InviLISA Aggrecanase activity assay, aggrecanase 2; format: biochemical; details: for inhibition at 10 µM: inhibitors tested at 10 μM final concentration
T2 construct: ADAMTS-5 aminoacids S262-G625 with C-terminal tag; purchased Invitek GmbH, Berlin
T2 sequence (Q9UNA0 262-625): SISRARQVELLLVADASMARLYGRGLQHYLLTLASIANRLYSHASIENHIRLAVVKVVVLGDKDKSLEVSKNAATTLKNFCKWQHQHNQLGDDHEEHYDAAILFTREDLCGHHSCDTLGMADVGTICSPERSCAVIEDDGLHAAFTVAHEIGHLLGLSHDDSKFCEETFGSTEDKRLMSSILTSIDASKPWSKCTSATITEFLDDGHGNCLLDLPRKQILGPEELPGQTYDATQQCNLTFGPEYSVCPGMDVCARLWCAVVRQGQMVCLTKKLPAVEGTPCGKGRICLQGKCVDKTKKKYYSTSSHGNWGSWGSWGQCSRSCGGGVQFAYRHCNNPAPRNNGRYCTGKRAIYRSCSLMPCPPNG
Description: as §1, §2, §3

[4] = test system: mechanical hyperalgesia associated with STZ-induced diabetes; assay: STZ-induced diabetes mechanical hyperalgesia, model of neuropathic pain (Randall-Selitto); format: in vivo, rat
Description: Painful diabetic neuropathy is one of the most common complications of insulin-dependent diabetes in man; in particular, diabetes can be associated with neuropathic pain which fails to be treated by classical analgesics. Streptozotocin (STZ)-induced diabetes in the rat has been increasingly used as a model of painful diabetic neuropathy to assess the efficacies of potential analgesic agents (C. Courteix, Pain 1993, 53, 81-8). A representative compound of the invention was tested for efficacy in reducing mechanical hyperalgesia associated with STZ-induced diabetes in the rat, according to the experimental model as described by the literature. Diabetes was produced with the injection of a single dose (75 mg/Kg i.p.) of STZ. In the following four weeks after the induction of diabetes the clinical symptoms (weight, body and skin temperature, motility and hyperglycemia) progressively developed by the animals, are strictly monitored.
After four weeks, the scores obtained in diabetic rats to various pain stimuli (in particular mechanical stimuli) were greater than those in normal rats, indicating hyperalgesia. The hyperalgesia induced by diabetes was evaluated using the Randall-Selitto method as above described, and quantitated using the analgesimeter. Also in this case, the difference in the mechanical pain threshold between the basal value (generally 230-250 g) and the one tolerated by the animals treated with the drug, is defined as mechanical hyperalgesia. The compound of the invention was administered i.p. (solution, Tween 80, 10% in saline) at different doses, and mechanical hyperalgesia was measured at the reported time, as maximum percent effect (MPE) which represents the difference (%) in pain threshold between the animals treated with the drug and the controls that received only the vehicle, compared with the weight borne by naïf non-diabetic controls. A 100% protection means that the diabetic animals treated with the compound can tolerate the same stimulus (weight) as the naïf non-diabetic animals. MPE higher than 100% means that the diabetic animal treated with the compound can tolerate stimuli (weight) higher than the control non-diabetic animals (hypoalgesia).
In Table 4, the effect of a representative compound of formula (I), in the above described model of neuropathic pain, is compared with some known pharmacological standards used for the clinical treatment of this pathology. In particular, from the MPE data at 0.5 hrs, the doses yielding a protection of 50% (ED50) and 100% (ED100) have been calculated.

[5] = test system: CFA-induced prolonged inflammation; assay: CFA model of chronic inflammatory pain (Randall-Selitto); format: in vivo, rat; details: for MPE 0.5 hrs / MPE 1.5 hrs / MPE 3 hrs / MPE 6 hrs / MPE 24 hrs: NE = not effective; for ED100 0.5 hrs: IP, calculated from the MPE data at 0.5 hrs; for ED50: Rattus norvegicus, ip, 0.5 h, read-out: ED50 0.5 hrs
[6] = rat, OS, 4 hrs after zymosan, NC = not calculable
[7] = 10 mg/Kg IP, NE = not effective
[8] = 30 mg/Kg IP, NE = not effective
[9] = 50 mg/Kg IP, NE = not effective

Compound: CC(=N)Nc1ccc2oc(-c3ccccc3)cc(=O)c2c1 (as salt: hydrochloride) [Example 1, 2-phenyl-6-[(1-iminoethyl)amino]-4H-1-benzopyran-4-one hydrochloride]
- melting point: 278.2 to 278.8 °C

Compound: CC(=N)Nc1ccc2oc(-c3ccc(-n4ccnc4)cc3)c(O)c(=O)c2c1 (as salt: hydrochloride) [Example 5, 2-[(4-imidazol-1-yl)-phenyl]-3-hydroxy-6-[(1-iminoethyl)amino]-4H-1-benzopyran-4-one hydrochloride]
- melting point: 311.7 to 312.1 °C

Compound: CC(=N)Nc1ccc2oc(-c3ccc4c(c3)OCO4)cc(=O)c2c1 (as salt: hydrochloride) [Example 4, 2-(benzo[1,3]dioxol-5-yl)-6-[(1-iminoethyl)amino]-4H-1-benzopyran-4-one hydrochloride]
- melting point: 272.7 to 273.3 °C

Compound: Cc1ccc(-c2cc(C(F)(F)F)nn2-c2ccc(S(N)(=O)=O)cc2)cc1 [Celecoxib, reference compound]
- ED50 [1, 6]: 9 mg/kg

Compound: COCCC(=N)Nc1ccc2oc(-c3ccc4c(c3)OCO4)c(O)c(=O)c2c1 (as salt: hydrochloride) [Example 19, 2-(benzo[1,3]dioxol-5-yl)-3-hydroxy-6-[(1-iminopropyl-3-methoxy)amino]-4H-1-benzopyran-4-one hydrochloride]
- melting point: 188.5 to 190 °C

Compound: CC(=N)Nc1ccc2oc(-c3ccc4c(c3)OCO4)cc(=O)c2c1 [Example 4, 2-(benzo[1,3]dioxol-5-yl)-6-[(1-iminoethyl)amino]-4H-1-benzopyran-4-one hydrochloride]
- inhibition at 10 µM [2]: 40%
- inhibition at 10 µM [3]: 10%
- ED50 ([1]; Rattus norvegicus, 4 h): 12 mg/kg
- ED100 4 hrs [1, 6]: 35 mg/kg

Compound: CS(=O)(=O)Nc1ccc([N+](=O)[O-])cc1Oc1ccccc1 [Nimesulide, reference compound]
- ulcerative side effects ([1]; even at the higher doses tested): ulcerative side effects
- ED50 [1, 6]: 5 mg/kg

Compound: COc1cccc(C2(O)CCCCC2CN(C)C)c1 (stereo not shown) [Tramadol]
- ED50 ([1]; Rattus norvegicus, 4 h): 25.7 mg/kg
- MPE 0.5 hrs ([4]; 3 mg/Kg IP, NE = not effective): 26%
- MPE 1.5 hrs ([4]; 3 mg/Kg IP, NE = not effective): 53%
- MPE 0.5 hrs [4, 7]: 58%
- MPE 1.5 hrs [4, 7]: 48%
- MPE 3 hrs [4, 7]: 27%
- MPE 0.5 hrs [4, 8]: 54%
- MPE 1.5 hrs [4, 8]: 64%
- MPE 3 hrs [4, 8]: 23%
- MPE 0.5 hrs [4, 9]: 81%
- MPE 1.5 hrs [4, 9]: 60%
- MPE 3 hrs [4, 9]: 43%
- ED50 ([4]; Rattus norvegicus, ip, 0.5 h, read-out: ED50 0.5 hrs, IP, calculated from the MPE data at 0.5 hrs, NC = not calculable): 10.9 mg/kg

Compound: COc1ccc(-c2cc(=O)c3cc(NC(C)=N)ccc3o2)cc1 [Example 2, 2-(4-methoxyphenyl)-6-[(1-iminoethyl)amino]-4H-1-benzopyran-4-one hydrochloride monohydrate]
- inhibition at 10 µM [2]: 30%
- inhibition at 10 µM [3]: 30%
- ED50 ([1]; Rattus norvegicus, 4 h): 6.5 mg/kg
- ED100 4 hrs [1, 6]: 18 mg/kg
- MPE 0.5 hrs ([5]; 3 mg/Kg IP): 91%
- MPE 1.5 hrs ([5]; 3 mg/Kg IP): 87%
- MPE 3 hrs ([5]; 3 mg/Kg IP): 32%
- MPE 0.5 hrs ([5]; 10 mg/Kg IP): 193%
- MPE 1.5 hrs ([5]; 10 mg/Kg IP): 105%
- MPE 3 hrs ([5]; 10 mg/Kg IP): 42%
- MPE 6 hrs ([5]; 10 mg/Kg IP): 43%
- MPE 24 hrs ([5]; 10 mg/Kg IP): 38%
- MPE 0.5 hrs ([5]; 30 mg/Kg IP): 254%
- MPE 1.5 hrs ([5]; 30 mg/Kg IP): 190%
- MPE 3 hrs ([5]; 30 mg/Kg IP): 146%
- MPE 6 hrs ([5]; 30 mg/Kg IP): 89%
- MPE 24 hrs ([5]; 30 mg/Kg IP): 45%
- ED100 0.5 hrs [5]: 3.15 mg/kg
- ED50 [5]: 1.56 mg/kg

Compound: CC(=N)Nc1ccc2oc(-c3ccccc3)cc(=O)c2c1 [Example 1, 2-phenyl-6-[(1-iminoethyl)amino]-4H-1-benzopyran-4-one hydrochloride]
- inhibition at 10 µM [2]: 10%
- inhibition at 10 µM [3]: 30%
- ED50 ([1]; Rattus norvegicus, 4 h): 7.9 mg/kg
- ED100 4 hrs [1, 6]: 19 mg/kg
- MPE 0.5 hrs ([5]; 3 mg/Kg IP): 30%
- MPE 1.5 hrs ([5]; 3 mg/Kg IP): 50%
- MPE 3 hrs ([5]; 3 mg/Kg IP): 40%
- MPE 0.5 hrs ([5]; 10 mg/Kg IP): 62%
- MPE 1.5 hrs ([5]; 10 mg/Kg IP): 39%
- MPE 0.5 hrs ([5]; 30 mg/Kg IP): 261%
- MPE 1.5 hrs ([5]; 30 mg/Kg IP): 190%
- MPE 3 hrs ([5]; 30 mg/Kg IP): 37%
- ED100 0.5 hrs [5]: 8.06 mg/kg
- ED50 [5]: 4.86 mg/kg
- MPE 0.5 hrs ([4]; 3 mg/Kg IP, NE = not effective): 74%
- MPE 1.5 hrs ([4]; 3 mg/Kg IP, NE = not effective): 25%
- MPE 0.5 hrs [4, 7]: 109%
- MPE 1.5 hrs [4, 7]: 54%
- MPE 0.5 hrs [4, 8]: 113%
- MPE 1.5 hrs [4, 8]: 39%
- MPE 3 hrs [4, 8]: 39%
- MPE 6 hrs [4, 8]: 31%
- protection ([4]; at the doses of 10 and 30 mg/kg): higher than 100%
- efficacy in STZ neuropathic pain paradigm ([4]; rat, in vivo): high efficacy

Compound: CC(=N)Nc1ccc2oc(-c3ccc(F)cc3)cc(=O)c2c1 [Example 3, 2-(4-fluorophenyl)-6-[(1-iminoethyl)amino]-4H-1-benzopyran-4-one]
- inhibition at 10 µM [2]: 40%
- IC50 [3]: 10 µM
- ED100 4 hrs [1, 6]: 24 mg/kg
- ED50 [1, 6]: 12 mg/kg

Compound: N=C(CC1CC1)Nc1ccc2oc(-c3ccc(O)cc3)c(O)c(=O)c2c1 [Example 11, 2-(4-hydroxyphenyl-3-hydroxy-6-[(1-iminoethyl-2-cyclopropyl)amino]-4H-1-benzopyran-4-one hydrochloride]
- inhibition at 10 µM [2]: 30%
- inhibition at 10 µM [3]: 40%
